#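 Cells were grown in 96-well plates and exposed to each compound for 48 hours at five concentrations; endpoints were interpolated linearly between bracketing concentrations, or set to the highest concentration if not reached. GI50 is the concentration that inhibits growth by half. TGI marks complete inhibition of growth.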
# Assays:
# Test in all cases: DTP human tumour cell line panel, 48 h
# 786-0 renal = tested on: 786-0 renal
# A498 renal = tested on: A498 renal
# A549 NSCLC = tested on: A549 NSCLC
# ACHN renal = tested on: ACHN renal
# BT-549 breast = tested on: BT-549 breast
# CAKI-1 renal = tested on: CAKI-1 renal
# CCRF-CEM leukemia = tested on: CCRF-CEM leukemia
# COLO 205 colon = tested on: COLO 205 colon
# DU-145 prostate = tested on: DU-145 prostate
# EKVX NSCLC = tested on: EKVX NSCLC
# HCC-2998 colon = tested on: HCC-2998 colon
# HCT-116 colon = tested on: HCT-116 colon
# HCT-15 colon = tested on: HCT-15 colon
# HL-60(TB) leukemia = tested on: HL-60(TB) leukemia
# HOP-62 NSCLC = tested on: HOP-62 NSCLC
# HOP-92 NSCLC = tested on: HOP-92 NSCLC
# HS 578T breast = tested on: HS 578T breast
# HT29 colon = tested on: HT29 colon
# IGROV1 ovarian = tested on: IGROV1 ovarian
# K-562 leukemia = tested on: K-562 leukemia
# KM12 colon = tested on: KM12 colon
# LOX IMVI melanoma = tested on: LOX IMVI melanoma
# M14 melanoma = tested on: M14 melanoma
# MALME-3M melanoma = tested on: MALME-3M melanoma
# MCF7 breast = tested on: MCF7 breast
# MDA-MB-435 = tested on: MDA-MB-435
# MDA-MB-468 breast = tested on: MDA-MB-468 breast
# MOLT-4 leukemia = tested on: MOLT-4 leukemia
# NCI-H226 lung = tested on: NCI-H226 lung
# NCI-H23 lung = tested on: NCI-H23 lung
# NCI-H460 lung = tested on: NCI-H460 lung
# NCI-H522 lung = tested on: NCI-H522 lung
# NCI/ADR-RES ovarian = tested on: NCI/ADR-RES ovarian
# OVCAR-3 ovarian = tested on: OVCAR-3 ovarian
# OVCAR-4 ovarian = tested on: OVCAR-4 ovarian
# OVCAR-5 ovarian = tested on: OVCAR-5 ovarian
# OVCAR-8 ovarian = tested on: OVCAR-8 ovarian
# PC-3 prostate = tested on: PC-3 prostate
# RPMI-8226 leukemia = tested on: RPMI-8226 leukemia
# RXF 393 renal = tested on: RXF 393 renal
# SF-268 CNS = tested on: SF-268 CNS
# SF-295 CNS = tested on: SF-295 CNS
# SF-539 CNS = tested on: SF-539 CNS
# SK-MEL-28 melanoma = tested on: SK-MEL-28 melanoma
# SK-MEL-5 melanoma = tested on: SK-MEL-5 melanoma
# SK-OV-3 ovarian = tested on: SK-OV-3 ovarian
# SN12C renal = tested on: SN12C renal
# SNB-19 CNS = tested on: SNB-19 CNS
# SR leukemia = tested on: SR leukemia
# SW-620 colon = tested on: SW-620 colon
# T-47D breast = tested on: T-47D breast
# TK-10 renal = tested on: TK-10 renal
# U251 CNS = tested on: U251 CNS
# UACC-62 melanoma = tested on: UACC-62 melanoma
smiles,measurement,setting,value
C[C@H]1[C@@H](CC(=O)N[C@@H](Cc2coc3ccccc23)B(O)O)O[C@@H]2OC3(C)CC[C@H]4[C@H](C)CC[C@@H]1[C@@]24OO3,GI50,786-0 renal,2.84 µM
same,TGI,786-0 renal,15.1 µM
same,GI50,A498 renal,2.28 µM
same,TGI,A498 renal,9.8 µM
same,GI50,A549 NSCLC,2.46 µM
same,TGI,A549 NSCLC,> 71 µM
same,GI50,ACHN renal,2.01 µM
same,TGI,ACHN renal,> 71 µM
same,GI50,BT-549 breast,0.556 µM
same,TGI,BT-549 breast,1.8 µM
same,GI50,CAKI-1 renal,3.63 µM
same,TGI,CAKI-1 renal,21.9 µM
same,GI50,CCRF-CEM leukemia,0.322 µM
same,TGI,CCRF-CEM leukemia,5.38 µM
same,GI50,COLO 205 colon,1.89 µM
same,TGI,COLO 205 colon,8.9 µM
same,GI50,DU-145 prostate,5.47 µM
same,TGI,DU-145 prostate,62.1 µM
same,GI50,EKVX NSCLC,3.14 µM
same,TGI,EKVX NSCLC,22.2 µM
same,GI50,HCC-2998 colon,1.23 µM
same,TGI,HCC-2998 colon,2.3 µM
same,GI50,HCT-116 colon,0.783 µM
same,TGI,HCT-116 colon,2.29 µM
same,GI50,HCT-15 colon,0.363 µM
same,TGI,HCT-15 colon,4.29 µM
same,GI50,HL-60(TB) leukemia,0.177 µM
same,TGI,HL-60(TB) leukemia,2.04 µM
same,GI50,HOP-62 NSCLC,2.26 µM
same,TGI,HOP-62 NSCLC,8.31 µM
same,GI50,HOP-92 NSCLC,1.34 µM
same,TGI,HOP-92 NSCLC,4.09 µM
same,GI50,HS 578T breast,1.9 µM
same,TGI,HS 578T breast,12 µM
same,GI50,HT29 colon,1.55 µM
same,TGI,HT29 colon,4.86 µM
same,GI50,IGROV1 ovarian,2.26 µM
same,TGI,IGROV1 ovarian,9.3 µM
same,GI50,K-562 leukemia,1.14 µM
same,TGI,K-562 leukemia,13.8 µM
same,GI50,KM12 colon,1.98 µM
same,TGI,KM12 colon,6.32 µM
same,GI50,LOX IMVI melanoma,0.892 µM
same,TGI,LOX IMVI melanoma,1.99 µM
same,GI50,M14 melanoma,1.33 µM
same,TGI,M14 melanoma,3.86 µM
same,GI50,MALME-3M melanoma,1.07 µM
same,TGI,MALME-3M melanoma,4.58 µM
same,GI50,MCF7 breast,0.969 µM
same,TGI,MCF7 breast,15.6 µM
same,GI50,MDA-MB-435,0.287 µM
same,TGI,MDA-MB-435,1.51 µM
same,GI50,MDA-MB-468 breast,0.917 µM
same,TGI,MDA-MB-468 breast,2.57 µM
same,GI50,MOLT-4 leukemia,0.267 µM
same,TGI,MOLT-4 leukemia,3.54 µM
same,GI50,NCI-H226 lung,0.876 µM
same,TGI,NCI-H226 lung,2.14 µM
same,GI50,NCI-H23 lung,1.62 µM
same,TGI,NCI-H23 lung,7.44 µM
same,GI50,NCI-H460 lung,2.46 µM
same,TGI,NCI-H460 lung,12 µM
same,GI50,NCI-H522 lung,0.493 µM
same,TGI,NCI-H522 lung,1.81 µM
same,GI50,NCI/ADR-RES ovarian,8.06 µM
same,TGI,NCI/ADR-RES ovarian,37.2 µM
same,GI50,OVCAR-3 ovarian,1.26 µM
same,TGI,OVCAR-3 ovarian,5.18 µM
same,GI50,OVCAR-4 ovarian,2.6 µM
same,TGI,OVCAR-4 ovarian,68.5 µM
same,GI50,OVCAR-5 ovarian,1.65 µM
same,TGI,OVCAR-5 ovarian,7.12 µM
same,GI50,OVCAR-8 ovarian,2.08 µM
same,TGI,OVCAR-8 ovarian,11.7 µM
same,GI50,PC-3 prostate,1.19 µM
same,TGI,PC-3 prostate,18.8 µM
same,GI50,RPMI-8226 leukemia,0.267 µM
same,TGI,RPMI-8226 leukemia,1.42 µM
same,GI50,RXF 393 renal,0.259 µM
same,TGI,RXF 393 renal,1.12 µM
same,GI50,SF-268 CNS,3.04 µM
same,TGI,SF-268 CNS,> 71 µM
same,GI50,SF-295 CNS,1.98 µM
same,TGI,SF-295 CNS,7.69 µM
same,GI50,SF-539 CNS,1.05 µM
same,TGI,SF-539 CNS,2.47 µM
same,GI50,SK-MEL-28 melanoma,1.2 µM
same,TGI,SK-MEL-28 melanoma,3.63 µM
same,GI50,SK-MEL-5 melanoma,1.13 µM
same,TGI,SK-MEL-5 melanoma,2.22 µM
same,GI50,SK-OV-3 ovarian,3.55 µM
same,TGI,SK-OV-3 ovarian,13.4 µM
same,GI50,SN12C renal,2.18 µM
same,TGI,SN12C renal,10.6 µM
same,GI50,SNB-19 CNS,3.43 µM
same,TGI,SNB-19 CNS,> 71 µM
same,GI50,SR leukemia,0.143 µM
same,TGI,SR leukemia,0.677 µM
same,GI50,SW-620 colon,0.362 µM
same,TGI,SW-620 colon,10.2 µM
same,GI50,T-47D breast,0.749 µM
same,TGI,T-47D breast,3.03 µM
same,GI50,TK-10 renal,1.64 µM
same,TGI,TK-10 renal,> 71 µM
same,GI50,U251 CNS,2.14 µM
same,TGI,U251 CNS,10.5 µM
same,GI50,UACC-62 melanoma,1.06 µM
same,TGI,UACC-62 melanoma,2.23 µM

# Reference: PubChem BioAssay (NCI)
